The values below come from patent US6602882B1, “Quinoline derivatives and their use as antibacterial agents” (SmithKline Beecham p.l.c., priority 1998, dated 2003).

Each structure is given as a SMILES string. Values after ≈ are worked out from the molar mass of the structure shown. Like-named read-outs stand apart in the source and are kept apart here.

Common to all, as to format: cell-based
One experiment deals with S. aureus Oxford. The experiment in a line: MIC against S. aureus Oxford. As for the experimental part:
(§1) The MIC (μg/ml) of compounds 1, 3 and 4 against various organisms was determined.

For another experiment, the system named is S. aureus WCUH29. As to the kind of experiment: MIC against S. aureus WCUH29. How it is done: as §1
The next experiment concerns E. faecalis I. As to the kind of experiment: MIC against E. faecalis I. How it is done: as §1
The next experiment deals with S. aureus Carter 37. As to the kind of experiment: MIC against S. aureus Carter 37. How it is done:
as §1

For a further experiment, the system named is S. pneumoniae R6. The experiment in a line: MIC against S. pneumoniae R6. As for the experimental part:
as §1

For another experiment, the system named is M. catarrhalis Ravasio. As to the kind of experiment: MIC against M. catarrhalis Ravasio. As for the experimental part:
as §1

Where [1] appears, read: Staphylococcus aureus, read-out: MIC.
Setting [2] is: Staphylococcus aureus, CARTER37, read-out: MIC.
The mark [3] stands for this setting: Enterococcus faecalis, read-out: MIC.
The mark [4] stands for this setting: Streptococcus pneumoniae, read-out: MIC.

Take `CCCCCCCN1CC[C@H](NC(=O)Nc2ccnc3ccc(OC)nc23)[C@H](CO)C1.O=C(O)C(=O)O` (relative stereo) [Example 6, N-(cis-1-Heptyl-3-(R/S)-hydroxymethyl-4-(S/R)-piperidyl)-N′-(6-methoxy-[1,5]-naphthyridin-4-yl)urea Oxalate]: the results for the MIC in the experiment on S. aureus Oxford, in the experiment on S. aureus WCUH29 and against E. faecalis I were 0.5 µg/mL, 1 µg/mL and 8 µg/mL, respectively.
Turning to `CCCCCCCN1CCC(NC(=O)Nc2ccnc3ccc(OC)cc23)CC1` [Example 4, 1-Heptyl-4-(6-methoxyquinolin4-yl)ureidopiperidine], the MIC amounted to 16 µg/mL (≈ 40.1 µM) in the experiment on S. aureus Oxford (setting [1]); 8 µg/mL (≈ 20.1 µM) in the experiment with S. aureus WCUH29 (setting [1]); 16 µg/mL (≈ 40.1 µM) with S. aureus Carter 37 (setting [2]); 8 µg/mL (≈ 20.1 µM) in the experiment on E. faecalis I (setting [3]); 2 µg/mL (≈ 5.02 µM) in the experiment with S. pneumoniae R6 (setting [4]).
As for `CCCCCCCN1CCC(OC(=O)Nc2ccnc3ccc(OC)cc23)CC1` [Example 3, 1-Heptyl-4-[N-(6-methoxyquinolin-4-yl)aminocarbonyloxy]piperidine], the MIC amounted to 8 µg/mL (≈ 20 µM) in the experiment on S. aureus Oxford (setting [1]); 4 µg/mL (≈ 10 µM) with S. aureus WCUH29 (setting [1]); 8 µg/mL (≈ 20 µM) in the experiment with S. aureus Carter 37 (setting [2]); 8 µg/mL (≈ 20 µM) in the experiment with E. faecalis I (setting [3]); 16 µg/mL (≈ 40 µM) in the experiment on M. catarrhalis Ravasio (Moraxella catarrhalis, read-out: MIC); 4 µg/mL (≈ 10 µM) with S. pneumoniae R6 (setting [4]).
`CCCCCCCN1CC[C@H](NC(=O)Nc2ccnc3ccc(OC)cc23)[C@H](CO)C1.O=C(O)C(=O)O` (relative stereo) [Example 5, N-(cis-1-Heptyl-3-(R/S)-hydroxymethyl-4-(S/R)-piperidyl)-N′-(6-methoxyquinolin-4-yl)urea oxalate]: the minimum inhibitory concentration (MIC) with S. aureus Oxford turned out to be 1 µg/mL; in the experiment with S. aureus WCUH29, 1 µg/mL; in the experiment on E. faecalis I it was 4 µg/mL.
With `CCCCCC1CCC2CC(OC(=O)Nc3ccnc4ccc(OC)cc34)CCN2C1` (centres unmarked) [Example 1, 1-Aza-8-(ax)-[(6-methoxyquinolin-4-yl)-aminocarbonyloxy]-3-(ax)-n-pentyl-bicyclo[4,4,0]decane], the MIC against S. aureus Oxford worked out at 2 µg/mL (≈ 4.7 µM); in the experiment on S. aureus WCUH29, 4 µg/mL (≈ 9.4 µM); in the experiment with S. aureus Carter 37, 8 µg/mL (≈ 18.8 µM); against E. faecalis I, 8 µg/mL (≈ 18.8 µM); with M. catarrhalis Ravasio, 32 µg/mL (≈ 75.2 µM); in the experiment with S. pneumoniae R6, 1 µg/mL (≈ 2.35 µM).
In the case of `CCCCCCCN1CCC(NC(=O)Nc2ccnc3ccc(OC)nc23)CC1.O=C(O)C(=O)O` [Example 7], the MIC is 1 µg/mL against S. aureus Oxford, 1 µg/mL in the experiment on S. aureus WCUH29 and 8 µg/mL against E. faecalis I.
